Consider 20 compounds from patent US20190152957A1, “PYRIDIN-3-YL ACETIC ACID DERIVATIVES AS INHIBITORS OF HUMAN IMMUNODEFICIENCY VIRUS REPLICATION” (ViiV HEALTHCARE UK (NO.5) LIMITED, priority 2016, published 2019).

For one experiment, the system named is recombinant NL-RLuc virus (HIV NL4-3 with Renilla Luciferase gene) in MT-2 cells. The experiment is described as follows: Inhibition of HIV replication (NL-RLuc virus, luciferase readout in MT-2 cells). To be noted: MT2, 120 h, read-out: Activity. The format is cell-based. From the text: Inhibition of HIV Replication:
A recombinant NL-RLuc proviral clone was constructed in which a section of the nef gene from NL4-3 was replaced with the Renilla Luciferase gene. This virus is fully infectious and can undergo multiple cycles of replication in cell culture. In addition, the luciferous reporter provides a simple and easy method for quantitating the extent of virus growth and consequently, the antiviral activity of test compounds. The plasmid pNLRLuc contains the proviral NL-Rluc DNA cloned into pUC18 at the PvuII site. The NL-RLuc virus was prepared by transfection of 293T cells with the plasmid pNLRLuc. Transfections were performed using the LipofectAMINE PLUS kit from Invitrogen (Carlsbad, Calif.) according to the manufacturer and the virus generated was titered in MT-2 cells. For susceptibility analyses, the titrated virus was used to infect MT-2 cells in the presence of compound, and after 5 days of incubation, cells were processed and quantitated for virus growth by the amount of expressed luciferase. Assay media was RPMI 1640 supplemented with 10% heat inactivated fetal bovine serum (FBS), 100 units/ml penicillin G/100 units/ml streptomycin, 10 mM HEPES buffer pH 7.55 and 2 mM L-glutamine. The results from at least 2 experiments were used to calculate the EC50 values. Luciferase was quantitated using the Dual Luciferase kit from Promega (Madison, Wis.). Susceptibility of viruses to compounds was determined by incubation in the presence of serial dilutions of the compound. The 50% effective concentration (EC50) was calculated by using the exponential form of the median effect equation where (Fa)=1/[1+(ED50/drug conc.)^m](Johnson V A, Byington R T. Infectivity Assay. In Techniques in HIV Research. ed. Aldovini A, Walker BD. 71-76. New York: Stockton Press. 1990). Activity equal to A refers to a compound having an EC50≤100 nM, while B and C denote compounds having an EC50 between 100 nM and 1 uM (B) or >1 uM (C).
In the case of `CCN1CCc2cc(-c3c(C)nc(C)c([C@H](OC(C)(C)C)C(=O)O)c3N3CCC(C)(C)CC3)ccc2C1` [Compound 55, (S)-2-(tert-butoxy)-2-(4-(4,4-dimethylpiperidin-1-yl)-5-(2-ethyl-1,2,3,4-tetrahydroisoquinolin-6-yl)-2,6-dimethylpyridin-3-yl)acetic acid], the EC50 fell in the range of 0.1 to 1 µM. As for `CCc1ncc(CN2CCc3cc(-c4c(C)nc(C)c([C@H](OC(C)(C)C)C(=O)O)c4N4CCC(C)(C)CC4)ccc3C2)[nH]1` [Compound 21, (S)-2-(tert-butoxy)-2-(4-(4,4-dimethylpiperidin-1-yl)-5-(2-((2-ethyl-1H-imidazol-5-yl)methyl)-1,2,3,4-tetrahydroisoquinolin-6-yl)-2,6-dimethylpyridin-3-yl)acetic acid], the EC50 was greater than 1 µM. On the same count and under the same terms, the result for `Cc1nc(C)c([C@H](OC(C)(C)C)C(=O)O)c(N2CCC(C)(C)CC2)c1-c1ccc2c(c1)CCN(Cc1nc(-c3ccccc3)oc1C)C2` [Compound 14, (S)-2-(tert-butoxy)-2-(4-(4,4-dimethylpiperidin-1-yl)-2,6-dimethyl-5-(2-((5-methyl-2-phenyloxazol-4-yl)methyl)-1,2,3,4-tetrahydroisoquinolin-6-yl)pyridin-3-yl)acetic acid] reads less than 0.1 µM; that for `Cc1cc(CN2CCc3cc(-c4c(C)nc(C)c([C@H](OC(C)(C)C)C(=O)O)c4N4CCC(C)(C)CC4)ccc3C2)[nH]n1` [Compound 42, (S)-2-(tert-butoxy)-2-(4-(4,4-dimethylpiperidin-1-yl)-2,6-dimethyl-5-(2-((3-methyl-1H-pyrazol-5-yl)methyl)-1,2,3,4-tetrahydroisoquinolin-6-yl)pyridin-3-yl)acetic acid], less than 0.1 µM. On to `Cc1nc(C)c([C@H](OC(C)(C)C)C(=O)O)c(N2CCC(C)(C)CC2)c1-c1ccc2c(c1)CCN(Cc1cnn(-c3ccc(F)cc3)c1)C2` [Compound 19, (S)-2-(tert-butoxy)-2-(4-(4,4-dimethylpiperidin-1-yl)-5-(2-((1-(4-fluorophenyl)-1H-pyrazol-4-yl)methyl)-1,2,3,4-tetrahydroisoquinolin-6-yl)-2,6-dimethylpyridin-3-yl)acetic acid], for which the EC50 is less than 0.1 µM. Still for that read-out and setting: the result for `Cc1ncsc1CN1CCc2cc(-c3c(C)nc(C)c([C@H](OC(C)(C)C)C(=O)O)c3N3CCC(C)(C)CC3)ccc2C1` [Compound 8, (S)-2-(tert-butoxy)-2-(4-(4,4-dimethylpiperidin-1-yl)-2,6-dimethyl-5-(2-((4-methylthiazol-5-yl)methyl)-1,2,3,4-tetrahydroisoquinolin-6-yl)pyridin-3-yl)acetic acid] reads less than 0.1 µM; that for `Cc1nc(C)c([C@H](OC(C)(C)C)C(=O)O)c(N2CCC(C)(C)CC2)c1-c1ccc2c(c1)CCN(Cc1nccn1C)C2` [Compound 38, (S)-2-(tert-butoxy)-2-(4-(4,4-dimethylpiperidin-1-yl)-2,6-dimethyl-5-(2-((1-methyl-1H-imidazol-2-yl)methyl)-1,2,3,4-tetrahydroisoquinolin-6-yl)pyridin-3-yl)acetic acid], less than 0.1 µM; that for `COc1ncc(CN2CCc3cc(-c4c(C)nc(C)c([C@H](OC(C)(C)C)C(=O)O)c4N4CCC(C)(C)CC4)ccc3C2)c(OC)n1` [Compound 48, (S)-2-(tert-butoxy)-2-(5-(2-((2,4-dimethoxypyrimidin-5-yl)methyl)-1,2,3,4-tetrahydroisoquinolin-6-yl)-4-(4,4-dimethylpiperidin-1-yl)-2,6-dimethylpyridin-3-yl)acetic acid], less than 0.1 µM.

Take `Cc1nc(C)c([C@H](OC(C)(C)C)C(=O)O)c(N2CCC(C)(C)CC2)c1-c1ccc2c(c1)CCN(Cc1[nH]nnc1[Si](C)(C)C)C2` [Compound 51, (S)-2-(tert-butoxy)-2-(4-(4,4-dimethylpiperidin-1-yl)-2,6-dimethyl-5-(2-((4-(trimethylsilyl)-1H-1,2,3-triazol-5-yl)methyl)-1,2,3,4-tetrahydroisoquinolin-6-yl)pyridin-3-yl)acetic acid]: the EC50 is less than 0.1 µM.

As for `Cc1nc(C)c([C@H](OC(C)(C)C)C(=O)O)c(N2CCC(C)(C)CC2)c1-c1ccc2c(c1)CCN(Cc1nccs1)C2` [Compound 9, (S)-2-(tert-butoxy)-2-(4-(4,4-dimethylpiperidin-1-yl)-2,6-dimethyl-5-(2-(thiazol-2-ylmethyl)-1,2,3,4-tetrahydroisoquinolin-6-yl)pyridin-3-yl)acetic acid], the EC50 is less than 0.1 µM. On the same count and under the same terms, then `Cc1nc(C)c([C@H](OC(C)(C)C)C(=O)O)c(N2CCC(C)(C)CC2)c1-c1ccc2c(c1)CCN(Cc1ccnc(Cl)c1F)C2` [Compound 28, (S)-2-(tert-butoxy)-2-(5-(2-((2-chloro-3-fluoropyridin-4-yl)methyl)-1,2,3,4-tetrahydroisoquinolin-6-yl)-4-(4,4-dimethylpiperidin-1-yl)-2,6-dimethylpyridin-3-yl)acetic acid], with less than 0.1 µM; and `Cc1nc(C)c([C@H](OC(C)(C)C)C(=O)O)c(N2CCC(C)(C)CC2)c1-c1ccc2c(c1)CCN(Cc1cccnc1)C2` [Compound 11, (S)-2-(tert-butoxy)-2-(4-(4,4-dimethylpiperidin-1-yl)-2,6-dimethyl-5-(2-(pyridin-3-ylmethyl)-1,2,3,4-tetrahydroisoquinolin-6-yl)pyridin-3-yl)acetic acid], with less than 0.1 µM.

As to `Cc1nc(C)c([C@H](OC(C)(C)C)C(=O)O)c(N2CCC(C)(C)CC2)c1-c1ccc2c(c1)CCN(Cc1nn(C)cc1Cl)C2` [Compound 24, (S)-2-(tert-butoxy)-2-(5-(2-((4-chloro-1-methyl-1H-pyrazol-3-yl)methyl)-1,2,3,4-tetrahydroisoquinolin-6-yl)-4-(4,4-dimethylpiperidin-1-yl)-2,6-dimethylpyridin-3-yl)acetic acid], the EC50 is less than 0.1 µM.

As to `CCn1cc(CN2CCc3cc(-c4c(C)nc(C)c([C@H](OC(C)(C)C)C(=O)O)c4N4CCC(C)(C)CC4)ccc3C2)cn1` [Compound 44, (S)-2-(tert-butoxy)-2-(4-(4,4-dimethylpiperidin-1-yl)-5-(2-((1-ethyl-1H-pyrazol-4-yl)methyl)-1,2,3,4-tetrahydroisoquinolin-6-yl)-2,6-dimethylpyridin-3-yl)acetic acid], the EC50 is less than 0.1 µM. As to `Cc1nc(C)c([C@H](OC(C)(C)C)C(=O)O)c(N2CCC(C)(C)CC2)c1-c1ccc2c(c1)CCN(Cc1cccnc1OC(C)C)C2` [Compound 45, (S)-2-(tert-butoxy)-2-(4-(4,4-dimethylpiperidin-1-yl)-5-(2-((2-isopropoxypyridin-3-yl)methyl)-1,2,3,4-tetrahydroisoquinolin-6-yl)-2,6-dimethylpyridin-3-yl)acetic acid], the EC50 is less than 0.1 µM.

On to `Cc1nc(C)c([C@H](OC(C)(C)C)C(=O)O)c(N2CCC(C)(C)CC2)c1-c1ccc2c(c1)CCN(Cc1cscn1)C2` [Compound 10, (S)-2-(tert-butoxy)-2-(4-(4,4-dimethylpiperidin-1-yl)-2,6-dimethyl-5-(2-(thiazol-4-ylmethyl)-1,2,3,4-tetrahydroisoquinolin-6-yl)pyridin-3-yl)acetic acid], for which the EC50 is less than 0.1 µM. In the case of `COc1cc(CN2CCc3cc(-c4c(C)nc(C)c([C@H](OC(C)(C)C)C(=O)O)c4N4CCC(C)(C)CC4)ccc3C2)ccn1` [Compound 31, (S)-2-(tert-butoxy)-2-(4-(4,4-dimethylpiperidin-1-yl)-5-(2-((2-methoxypyridin-4-yl)methyl)-1,2,3,4-tetrahydroisoquinolin-6-yl)-2,6-dimethylpyridin-3-yl)acetic acid], the EC50 was less than 0.1 µM. Consider `Cc1nc(C)c([C@H](OC(C)(C)C)C(=O)O)c(N2CCC(C)(C)CC2)c1-c1ccc2c(c1)CCN(C[C@H]1C[C@@H]3C=C[C@H]1C3)C2` [Compound 7, (S)-2-(5-(2-((1R,2S,4R)-bicyclo[2.2.1]hept-5-en-2-ylmethyl)-1,2,3,4-tetrahydroisoquinolin-6-yl)-4-(4,4-dimethylpiperidin-1-yl)-2,6-dimethylpyridin-3-yl)-2-(tert-butoxy)acetic acid], for which the EC50 was less than 0.1 µM. On the same count and under the same terms, the result for `Cc1nc(C)c([C@H](OC(C)(C)C)C(=O)O)c(N2CCC(C)(C)CC2)c1-c1ccc2c(c1)CCN(Cc1ccc(C(F)(F)F)nc1)C2` [Compound 34, (S)-2-(tert-butoxy)-2-(4-(4,4-dimethylpiperidin-1-yl)-2,6-dimethyl-5-(2-((6-(trifluoromethyl)pyridin-3-yl)methyl)-1,2,3,4-tetrahydroisoquinolin-6-yl)pyridin-3-yl)acetic acid] reads less than 0.1 µM; that for `COc1cccc(CN2CCc3cc(-c4c(C)nc(C)c([C@H](OC(C)(C)C)C(=O)O)c4N4CCC(C)(C)CC4)ccc3C2)n1` [Compound 30, (S)-2-(tert-butoxy)-2-(4-(4,4-dimethylpiperidin-1-yl)-5-(2-((6-methoxypyridin-2-yl)methyl)-1,2,3,4-tetrahydroisoquinolin-6-yl)-2,6-dimethylpyridin-3-yl)acetic acid], less than 0.1 µM.

Still in this experiment, the particulars now being: MT2, 120 h, read-out: EC50 μM.
On to `CCc1ncc(CN2CCc3cc(-c4c(C)nc(C)c([C@H](OC(C)(C)C)C(=O)O)c4N4CCC(C)(C)CC4)ccc3C2)[nH]1` [Compound 21, (S)-2-(tert-butoxy)-2-(4-(4,4-dimethylpiperidin-1-yl)-5-(2-((2-ethyl-1H-imidazol-5-yl)methyl)-1,2,3,4-tetrahydroisoquinolin-6-yl)-2,6-dimethylpyridin-3-yl)acetic acid], for which the EC50 was determined as 1.54 µM. As for `Cc1nc(C)c([C@H](OC(C)(C)C)C(=O)O)c(N2CCC(C)(C)CC2)c1-c1ccc2c(c1)CCN(Cc1nc(-c3ccccc3)oc1C)C2` [Compound 14, (S)-2-(tert-butoxy)-2-(4-(4,4-dimethylpiperidin-1-yl)-2,6-dimethyl-5-(2-((5-methyl-2-phenyloxazol-4-yl)methyl)-1,2,3,4-tetrahydroisoquinolin-6-yl)pyridin-3-yl)acetic acid], the EC50 was 0.016 µM. For the compound `Cc1ncsc1CN1CCc2cc(-c3c(C)nc(C)c([C@H](OC(C)(C)C)C(=O)O)c3N3CCC(C)(C)CC3)ccc2C1` [Compound 8, (S)-2-(tert-butoxy)-2-(4-(4,4-dimethylpiperidin-1-yl)-2,6-dimethyl-5-(2-((4-methylthiazol-5-yl)methyl)-1,2,3,4-tetrahydroisoquinolin-6-yl)pyridin-3-yl)acetic acid], the EC50 was 0.002 µM.
